{"source": "patent US20220401390A1", "about": "“TREATMENTS OF DIABETIC MACULAR EDEMA AND IMPAIRED VISUAL ACUITY” (KALVISTA PHARMACEUTICALS LIMITED, priority 2019, published 2022)", "format_in_all_cases": "in vivo, human", "key": {"[1]": {"tested_on": "subjects with center involved diabetic macular edema", "test": "Study 1: pharmacodynamic effect (visual acuity, retinal thickness)", "conditions": "for Mean improvement in visual acuity compared with baseline: single injection", "procedure": "(§1) The secondary objectives were: • To evaluate the plasma profile of the compound of Formula A following intravitreal injection in adult male and female subjects with central involved diabetic macular edema. • To evaluate the pharmacodynamic effect of intravitreal injection of the compound of Formula A in adult male and female subjects with central involved diabetic macular edema.\nFollowing the signing of informed consent, subjects attended the clinic where screening assessments were recorded (Clinic Visit 1). When deemed eligible, subjects attended the clinic where baseline measurements were recorded (recorded as Day 0, Clinic Visit 2). Following confirmation of eligibility and the taking of baseline ophthalmic measurements, a single intravitreal injection of the compound of Formula A, was administered to the study eye as per Diabetic Retinopathy Clinical Research Network (DRCR.net) protocol.\n(§2) Each subject returned on Day 1, 7, 14, 28 and 56 for safety and ophthalmic assessment. Pharmacokinetic assessment was also taken. In addition, the subject was contacted by the Study Site on Day 3 (+1-1 day) by telephone to inquire about the subject's visual wellbeing and to ask about any adverse events.\n(§3) Single 100 μL intravitreal injection of: • 1 μg-10 μg/mL of the compound of Formula A • 3 μg-30 μg/mL of the compound of Formula A • […] of the compound of Formula A\n• Best Corrected Visual Acuity as measured by ETDRS EVA • Intraocular pressure • Color vision • Multifocal Electroretinogram (mfERG) • Humphrey Visual Field 24-2 (HVF 24-2) • Treatment-Emergent Adverse Events (TEAEs) • Changes on ophthalmic examination • Clinical laboratory test results • Vital signs • ECG findings"}, "[2]": {"tested_on": "subjects with center involved diabetic macular edema", "test": "Study 1: pharmacodynamic effect (visual acuity, retinal thickness)", "conditions": "Day 84, 10 μg dose"}, "[3]": {"test": "Study 1: plasma profile following intravitreal injection", "from_the_text": "as §1, §2, §3"}, "[4]": {"tested_on": "subjects with ciDME who have had prior anti-VEGF treatment", "test": "Study 2: local and systemic safety and tolerability", "from_the_text": "To evaluate the local and systemic safety and tolerability of monthly dosing of the injections of the compound of Formula A in subjects with ciDME who had had prior anti-VEGF treatment.\nThis study was a randomized, sham-controlled, double-masked, 3-arm study into efficacy, safety and tolerability of monthly intravitreal injections of the compound of Formula A as a monotherapy in adult subjects with ciDME. The subjects had all had prior anti-VEGF treatment.\nThe 129 eligible subjects were randomized approximately 1:1:1 into three arms: • 1. Arm 1, N=44: • Received injections of 3 μg/eye (100 μL injection volume at a concentration of 30 μg/mL) of the compound of formula A; • 2. Arm 2, N=41: • Received injections of 6 μg/eye (100 μL injection volume at a concentration of 60 μg/mL) of the compound of formula A; and • 3. Arm 3, N=44: • Received a sham procedure; during a 12-week, double-masked treatment period (a total of 4 doses given at approximately monthly intervals).\nApproximately twenty-four (24) hours after each study drug administration or sham procedure on Day 1 and Weeks 4, 8, and 12, subjects were contacted by telephone to evaluate any reported AEs and changes in concomitant medications. In the event of any reported ocular or systemic AEs that were considered by the Investigator to be a possible cause for concern, the subjects returned to the clinic for assessment as soon as possible. • 3. Follow up Phase:\nSafety variables of interest in this study are: • AEs; • Ophthalmic and physical findings; • Laboratory test results (clinical chemistry, hematology, and urinalysis); • Vital signs (SBP, DBP, PR, and respiratory rate)."}, "[5]": {"conditions": "whole study population, no control group"}}, "note": "“Also recorded” adds a separate entry of the source."}
{"molecule": "CCOc1ccc(C[C@@H](NC(=O)c2ccccc2)C(=O)N[C@@H](Cc2ccccc2)C(=O)NCc2ccc(CN)cc2)cc1", "note": "[compound of Formula A, N—[(R)-1-[(S)-1-(4-Aminomethyl-benzylcarbamoyl)-2-phenyl-ethylcarbamoyl]-2-(4-ethoxy-phenyl)-ethyl]-benzamide]", "values": [{"measurement": "Mean improvement in visual acuity compared with baseline", "setting": "[1]; Day 7, average across all dose groups", "value": 0.7, "unit": "letters"}, {"measurement": "Mean improvement in visual acuity compared with baseline", "setting": "[1]; Day 14, average across all dose groups", "value": 1.0, "unit": "letters"}, {"measurement": "Mean improvement in visual acuity compared with baseline", "setting": "[1]; Day 28, average across all dose groups", "value": 1.9, "unit": "letters"}, {"measurement": "Mean improvement in visual acuity compared with baseline", "setting": "[1]; Day 56, average across all dose groups", "value": 2.8, "unit": "letters"}, {"measurement": "Mean improvement in visual acuity", "setting": "[1]; Day 84, 1 μg dose", "value": 3.3, "unit": "letters"}, {"measurement": "Mean improvement in visual acuity", "setting": "[1]; Day 84, 3 μg dose", "value": 2.0, "unit": "letters"}, {"measurement": "Mean improvement in visual acuity compared with baseline", "setting": "[1]; Day 84, average across all dose groups", "value": 4.1, "unit": "letters"}, {"measurement": "Mean retinal thickness post-injection (in words)", "setting": "[1]; [5]", "value": "trends of improvement; also recorded: reduction"}, {"measurement": "Mean visual acuity post-injection (in words)", "setting": "[1]; [5]", "value": "trends of improvement; also recorded: small improvement"}, {"measurement": "Mean improvement in visual acuity", "setting": "[2]", "value": 5.5, "unit": "letters"}, {"measurement": "Time post dosing up to which plasma concentrations were quantifiable", "setting": "[3]; 3 μg/eye dose", "value": "up to 24 hours"}, {"measurement": "Time post dosing up to which plasma concentrations were quantifiable", "setting": "[3]; 10 μg/eye", "value": "up to 24 hours"}, {"measurement": "Time post injection up to which plasma concentrations were quantifiable", "setting": "[3]; intravitreal injection of 1 μg/eye", "value": "up to 4 hours"}, {"measurement": "AEs that led to discontinuation", "setting": "[4]; 6 μg arm", "value": "one retinal neovascularization"}, {"measurement": "Severity of reported adverse events (AEs)", "setting": "[4]; majority of reported AEs, all arms", "value": "mild"}, {"measurement": "Subjects in whom the treatment was safe and well-tolerated", "setting": "[4]; monthly intravitreal injections, 3 μg or 6 μg", "value": "> 99", "unit": "%"}]}
